Laboratory results from ChEMBL document CHEMBL1131902, “Reversal of resistance in multidrug resistance protein (MRP1)-overexpressing cells by LY329146” (Bioorg Med Chem Lett, 1999).
≈ marks a conversion by molar mass, not a printed value.

How the values were obtained:
HL-60 [1] = assay: Ability to inhibit 50 nM Leukotriene C4 (LTC4) uptake into HL60/ADR membrane vesicles; assay type: functional, cell-based; conditions: Homo sapiens
HL-60 [2] = assay: Cytotoxicity against drug sensitive HL60/S cell line at 0.5 uM dose of LY-329146; assay type: functional, cell-based; conditions: Homo sapiens
HeLa [3] = assay: Cytotoxicity tested against Hela C1 cells at 2.5 uM dose of LY-329146; assay type: functional, cell-based; conditions: Homo sapiens
HL-60 [4] = assay: Cytotoxicity tested against drug sensitive HL60/S cell line at 1 uM dose of LY-329146; assay type: functional, cell-based; conditions: Homo sapiens
HeLa [5] = assay: Cytotoxicity tested against Hela T5 cells at 2.5 uM dose of LY-329146; assay type: functional, cell-based; conditions: Homo sapiens
HL-60 [6] = assay: Cytotoxicity against drug resistant HL60/ADR cell line at 1 uM dose of LY-329146; assay type: functional, cell-based; conditions: Homo sapiens
HeLa [7] = assay: Cytotoxicity tested against Hela C1 cells at 1 uM dose of LY-329146; assay type: functional, cell-based; conditions: Homo sapiens
HL-60 [8] = assay: Cytotoxicity tested against drug sensitive HL60/S cell line at 5 uM dose of LY-329146; assay type: functional, cell-based; conditions: Homo sapiens
HL-60 [9] = assay: Cytotoxicity tested against drug resistant HL60/ADR cell line at 5 uM dose of LY-329146; assay type: functional, cell-based; conditions: Homo sapiens
HL-60 [10] = assay: Cytotoxicity tested against drug resistant HL60/ADR cell line at 0.5 uM dose of LY-329146; assay type: functional, cell-based; conditions: Homo sapiens
HL-60 [11] = assay: Cytotoxicity against HL60/Vinc cell line at 0.5 uM dose of LY-329146; assay type: functional, cell-based; conditions: Homo sapiens
HL-60 [12] = assay: Cytotoxicity tested against HL60/Vinc cell line at 1 uM dose of LY-329146 at 1 uM; assay type: functional, cell-based; conditions: Homo sapiens
HL-60 [13] = assay: Cytotoxicity tested against HL60/Vinc cell line at 5 uM dose of LY-329146; assay type: functional, cell-based; conditions: Homo sapiens
HeLa [14] = assay: Cytotoxicity tested against Hela T5 cells at 1 uM dose of LY-329146; assay type: functional, cell-based; conditions: Homo sapiens
HL-60 [15] = assay: Cytotoxicity tested against drug resistant HL60/ADR cell line at 5 uM dose of LY-117018; assay type: functional, cell-based; conditions: Homo sapiens
HL-60 [16] = assay: Cytotoxicity tested against drug resistant HL60/ADR cell line at 1 uM dose of LY-117018; assay type: functional, cell-based; conditions: Homo sapiens
HL-60 [17] = assay: Ability to enhance the cytotoxicity of doxorubicin against […] HL60/ADR cell line expressed as reversal factor (RF) at 1 uM; assay type: functional, Homo sapiens
HL-60 [18] = assay: Ability to enhance the cytotoxicity of doxorubicin against […] HL60/ADR cell line expressed as reversal factor (RF) at 5 uM; assay type: functional, Homo sapiens
HeLa [19] = assay: Ratio of IC50 of oncolytic and its modulator against Hela C1 cells at 1 uM dose of LY-329146; assay type: functional, Homo sapiens
HeLa [20] = assay: Ratio of IC50 of oncolytic and its modulator against Hela T5 cells at 2.5 uM dose of LY-329146; assay type: functional, Homo sapiens
HeLa [21] = assay: Ratio of IC50 of oncolytic and its modulator against Hela T5 cells at 1 uM dose of LY-329146; assay type: functional, Homo sapiens
HeLa [22] = assay: Ratio of IC50 of oncolytic and its modulator against Hela C1 cells at 2.5 uM dose of LY-329146; assay type: functional, Homo sapiens
HL-60 [23] = assay: Cytotoxicity tested against drug sensitive HL60/S cell line; assay type: functional, cell-based; conditions: Homo sapiens
HL-60 [24] = assay: Cytotoxicity against drug resistant HL60/ADR cell line; assay type: functional, cell-based; conditions: Homo sapiens
HL-60 [25] = assay: Cytotoxicity tested against HL60/Vinc cell line; assay type: functional, cell-based; conditions: Homo sapiens
HeLa [26] = assay: Cytotoxicity tested against Hela T5 cells; assay type: functional, cell-based; conditions: Homo sapiens
HeLa [27] = assay: Cytotoxicity tested against Hela C1 cells; assay type: functional, cell-based; conditions: Homo sapiens

## CS(=O)(=O)N(c1ccc(-c2sc3cc(O)ccc3c2C(=O)c2ccc(OCCN3CCCCC3)cc2)cc1)S(C)(=O)=O
HL-60 [1]
  IC50: 0.8 µg/mL (≈ 1.27 µM)

## COc1cccc2c1C(=O)c1c(O)c3c(c(O)c1C2=O)C[C@@](O)(C(=O)CO)C[C@@H]3O[C@H]1C[C@H](N)[C@H](O)[C@H](C)O1.CS(=O)(=O)N(c1ccc(-c2sc3cc(O)ccc3c2C(=O)c2ccc(OCCN3CCCCC3)cc2)cc1)S(C)(=O)=O
HL-60 [2]
  IC50: 0.023 µg/mL
HeLa [3]
  IC50: 0.213 µg/mL
HL-60 [4]
  IC50: 0.018 µg/mL
HeLa [5]
  IC50: 0.241 µg/mL
HL-60 [6]
  IC50: 1.11 µg/mL
HeLa [7]
  IC50: 0.315 µg/mL
HL-60 [8]
  IC50: 0.011 µg/mL
HL-60 [9]
  IC50: 0.224 µg/mL
HL-60 [10]
  IC50: 1.71 µg/mL
HL-60 [11]
  IC50: 1.44 µg/mL
HL-60 [12]
  IC50: 0.444 µg/mL
HL-60 [13]
  IC50: 0.027 µg/mL
HeLa [14]
  IC50: 1.06 µg/mL

## COc1cccc2c1C(=O)c1c(O)c3c(c(O)c1C2=O)C[C@@](O)(C(=O)CO)C[C@@H]3O[C@H]1C[C@H](N)[C@H](O)[C@H](C)O1.O=C(c1ccc(OCCN2CCCC2)cc1)c1c(-c2ccc(O)cc2)sc2cc(O)ccc12
HL-60 [15]
  IC50: 1 µg/mL
HL-60 [16]
  IC50: 3.2 µg/mL
HL-60 [17]
  RF: 1
HL-60 [18]
  RF: 3

## CC[C@]1(O)CC2CN(CCc3c([nH]c4ccccc34)[C@@](C(=O)OC)(c3cc4c(cc3OC)N(C=O)C3C45CCN4CC=C[C@@](CC)(C(OC(C)=O)[C@]3(O)C(=O)OC)[C@H]45)C2)C1.CS(=O)(=O)N(c1ccc(-c2sc3cc(O)ccc3c2C(=O)c2ccc(OCCN3CCCCC3)cc2)cc1)S(C)(=O)=O (some centres not stated)
HeLa [19]
  RF: 2
HeLa [20]
  RF: 3.9
HeLa [3]
  IC50: 0.005 µg/mL
HeLa [21]
  RF: 1.6
HeLa [5]
  IC50: 0.013 µg/mL
HeLa [22]
  RF: 2.8
HeLa [7]
  IC50: 0.007 µg/mL
HeLa [14]
  IC50: 0.031 µg/mL

## COc1cccc2c1C(=O)c1c(O)c3c(c(O)c1C2=O)C[C@@](O)(C(=O)CO)C[C@@H]3O[C@H]1C[C@H](N)[C@H](O)[C@H](C)O1 [DOXORUBICIN]
HL-60 [23]
  IC50: 0.028 µg/mL (≈ 0.0515 µM)
HL-60 [24]
  IC50: 2.97 µg/mL (≈ 5.46 µM)
HL-60 [25]
  IC50: 1.88 µg/mL (≈ 3.46 µM)

## CN(C)C(=O)CCSC(SCCC(=O)O)c1cccc(/C=C/c2ccc3ccc(Cl)cc3n2)c1 (configuration not stated) [MK-571]
HL-60 [1]
  IC50: 0.5 µg/mL (≈ 0.971 µM)

## CC[C@]1(O)C[C@H]2CN(CCc3c([nH]c4ccccc34)[C@@](C(=O)OC)(c3cc4c(cc3OC)N(C=O)[C@H]3[C@@](O)(C(=O)OC)[C@H](OC(C)=O)[C@]5(CC)C=CCN6CC[C@]43[C@@H]65)C2)C1 [VINCRISTINE]
HeLa [26]
  IC50: 0.051 µg/mL (≈ 0.0618 µM)
HeLa [27]
  IC50: 0.014 µg/mL (≈ 0.017 µM)
